Settings: Liquid, Other PVT measurement

CCCCCCCCCCCCCCCC [hexadecane]
mass density [kg/m3]
Settings | 10000 kPa | 20000 kPa | 30000 kPa | 40000 kPa | 50000 kPa
298.2 K | 775.86 | 782.89 | 788.75 | 793.81 | 799.18
303.2 K | 773.66 | 779.38 | 785.01 | 790.38 | 795.64
313.2 K | 764.59 | 773.09 | 778.81 | 784.36 | 789.46
323.2 K | 759.8 | 766.48 | 773.19 | 778.83 | 784.38
333.2 K | 753.38 | 760.44 | 767.3 | 773.53 | 779.1
348.2 K | 744.11 | 751.32 | 758.67 | 765.1 | 770.98
353.2 K | 740.03 | 748.27 | 755.72 | 762.19 | 768.11
373.2 K | 727.81 | 736.02 | 744.18 | 751.02 | 757.42
393.2 K | 713.25 | 723.64 | 732.3 | 739.4 | 746.41
413.2 K | 700.27 | 711.23 | 720.49 | 728.42 | 735.85
423.2 K | 694.3 | 705.01 | 714.62 | 722.88 | 730.73
433.2 K | 687.01 | 698.74 | 708.69 | 717.4 | 725.14
453.2 K | 674.02 | 686.53 | 696.77 | 706.13 | 714.59
463.2 K | 669.34 | 680.32 | 690.8 | 700.49 | 709.18
473.2 K | 660.45 | 673.95 | 685.23 | 695.19 | 704.05

Source: the NIST ThermoML archive (doi:10.1021/acs.jced.9b00078)
